Drawing on ChEMBL document CHEMBL1155881, “Structure-based development of novel adenylyl cyclase inhibitors” (J Med Chem, 2008), this text covers IC50 and Activity for 5 compounds.

Calls of active or inactive are those of the source. The rule behind the calls is not given here.

Assay [1] has as its target Adenylate cyclase type 10 (Homo sapiens, UniProt Q96PN6). Description: Inhibition of human recombinant soluble adenylyl cyclase.
Assay [2] addresses Adenylate cyclase type 5 (Homo sapiens) (UniProt O95622). Description: Inhibition of forskolin-stimulated adenylyl cyclase 5 activity expressed in HEK293 cells at 100 uM. Type of assay: cell-based.
The target in assay [3] is Adenylate cyclase type 2 (Homo sapiens) (UniProt Q08462). Description: Inhibition of basal activity of adenylyl cyclase 2 expressed in HEK293 cells at 100 uM. The class given is cell-based.
For assay [4], the target named is Adenylate cyclase type 1 (Homo sapiens) (UniProt Q08828). Description: Inhibition of forskolin-stimulated adenylyl cyclase 1 activity expressed in HEK293 cells at 100 uM. Type of assay: cell-based.
Assay [5] has as its target Adenylate cyclase (Homo sapiens) (UniProt Q8NFM4+O60503+Q08828+P40145+O60266+O95622+O43306+Q08462+P51828). Description: Inhibition of forskolin-stimulated human transmembrane adenylyl cyclase activity in HEK293 cells at 100 uM. The class given is cell-based.
Assay [6] has as its target T1, Adenylate cyclase type 9 (Homo sapiens) (UniProt O60503).
T1 sequence (whole entry): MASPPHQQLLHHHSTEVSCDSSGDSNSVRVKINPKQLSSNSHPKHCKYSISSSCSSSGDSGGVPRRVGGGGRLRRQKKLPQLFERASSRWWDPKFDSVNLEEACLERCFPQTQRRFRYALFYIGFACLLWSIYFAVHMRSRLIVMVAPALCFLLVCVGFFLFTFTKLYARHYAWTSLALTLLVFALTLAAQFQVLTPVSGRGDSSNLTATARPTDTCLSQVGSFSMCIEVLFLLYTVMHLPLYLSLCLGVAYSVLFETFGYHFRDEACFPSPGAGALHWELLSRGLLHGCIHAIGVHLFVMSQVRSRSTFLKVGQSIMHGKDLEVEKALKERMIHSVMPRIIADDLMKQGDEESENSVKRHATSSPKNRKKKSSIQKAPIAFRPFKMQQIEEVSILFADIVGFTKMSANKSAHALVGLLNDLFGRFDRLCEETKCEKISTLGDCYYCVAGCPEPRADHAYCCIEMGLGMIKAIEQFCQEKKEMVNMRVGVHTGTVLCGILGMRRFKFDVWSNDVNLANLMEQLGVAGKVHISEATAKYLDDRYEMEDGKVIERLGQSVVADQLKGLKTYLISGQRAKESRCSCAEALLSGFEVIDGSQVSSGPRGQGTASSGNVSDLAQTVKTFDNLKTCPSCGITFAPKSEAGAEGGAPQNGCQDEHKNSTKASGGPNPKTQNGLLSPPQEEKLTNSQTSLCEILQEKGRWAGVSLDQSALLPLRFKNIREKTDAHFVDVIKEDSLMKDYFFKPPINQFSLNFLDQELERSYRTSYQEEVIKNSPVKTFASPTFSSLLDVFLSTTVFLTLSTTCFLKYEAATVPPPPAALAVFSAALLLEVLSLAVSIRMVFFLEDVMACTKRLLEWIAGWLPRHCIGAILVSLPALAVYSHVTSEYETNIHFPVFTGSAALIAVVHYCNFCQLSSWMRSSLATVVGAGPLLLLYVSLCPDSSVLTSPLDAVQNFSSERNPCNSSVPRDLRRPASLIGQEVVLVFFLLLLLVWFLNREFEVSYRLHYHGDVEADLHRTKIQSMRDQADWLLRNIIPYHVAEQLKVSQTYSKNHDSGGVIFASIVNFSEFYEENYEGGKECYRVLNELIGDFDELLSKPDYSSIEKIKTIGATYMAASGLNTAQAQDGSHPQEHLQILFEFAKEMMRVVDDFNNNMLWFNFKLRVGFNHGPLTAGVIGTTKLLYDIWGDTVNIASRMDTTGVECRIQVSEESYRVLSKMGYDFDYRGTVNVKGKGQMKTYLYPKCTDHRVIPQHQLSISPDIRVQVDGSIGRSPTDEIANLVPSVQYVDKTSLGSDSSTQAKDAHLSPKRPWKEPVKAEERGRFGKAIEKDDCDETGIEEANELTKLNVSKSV
Description: Inhibition of basal activity of adenylyl cyclase 9 expressed in HEK293 cells at 100 uM. Type of assay: cell-based.

For assay [7], the target named is T2, Adenylate cyclase (Arthrospira platensis, UniProt O32393).
T2 sequence (O32393 whole entry): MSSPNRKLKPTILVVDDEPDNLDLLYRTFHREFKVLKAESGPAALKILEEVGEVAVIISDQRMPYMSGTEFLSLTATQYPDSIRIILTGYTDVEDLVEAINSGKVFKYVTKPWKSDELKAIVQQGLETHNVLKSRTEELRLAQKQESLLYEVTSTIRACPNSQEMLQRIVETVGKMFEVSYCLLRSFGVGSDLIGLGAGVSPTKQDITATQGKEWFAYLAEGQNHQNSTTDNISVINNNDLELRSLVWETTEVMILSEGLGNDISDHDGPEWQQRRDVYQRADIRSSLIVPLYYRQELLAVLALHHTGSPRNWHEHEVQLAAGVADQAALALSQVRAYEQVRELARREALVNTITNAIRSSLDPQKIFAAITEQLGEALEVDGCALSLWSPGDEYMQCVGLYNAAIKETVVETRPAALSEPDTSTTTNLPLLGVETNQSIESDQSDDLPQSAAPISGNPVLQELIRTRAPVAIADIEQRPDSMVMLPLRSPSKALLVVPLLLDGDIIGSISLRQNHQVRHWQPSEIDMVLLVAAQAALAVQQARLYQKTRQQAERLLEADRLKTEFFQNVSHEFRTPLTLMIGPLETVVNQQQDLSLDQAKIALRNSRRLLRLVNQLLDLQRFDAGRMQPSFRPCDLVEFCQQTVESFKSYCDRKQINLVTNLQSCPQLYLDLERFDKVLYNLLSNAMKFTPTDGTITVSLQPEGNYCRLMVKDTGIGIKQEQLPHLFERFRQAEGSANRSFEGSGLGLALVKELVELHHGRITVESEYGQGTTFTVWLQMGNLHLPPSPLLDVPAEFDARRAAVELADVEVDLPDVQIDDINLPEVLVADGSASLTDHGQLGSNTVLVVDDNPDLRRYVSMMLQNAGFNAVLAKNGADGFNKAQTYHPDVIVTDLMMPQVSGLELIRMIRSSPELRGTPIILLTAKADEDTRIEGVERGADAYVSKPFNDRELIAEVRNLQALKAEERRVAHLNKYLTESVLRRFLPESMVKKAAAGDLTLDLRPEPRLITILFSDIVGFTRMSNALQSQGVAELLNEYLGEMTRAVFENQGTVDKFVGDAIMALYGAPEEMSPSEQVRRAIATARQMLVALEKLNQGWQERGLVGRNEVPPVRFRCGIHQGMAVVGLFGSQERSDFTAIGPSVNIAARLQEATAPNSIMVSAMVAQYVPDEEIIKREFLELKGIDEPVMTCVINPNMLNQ
Description: Inhibition of Spirulina platensis adenylyl cyclase assessed as cAMP level by cAMP immunogenic assay. Also noted: species or system Limnospira platensis.

In assay [8] the target is Adenylate cyclase type 2 (Homo sapiens) (UniProt Q08462). Description: Stimulation of basal activity of adenylyl cyclase 2 expressed in HEK293 cells at 100 uM in presence of forskolin. The class given is cell-based.

Broadly, the IC50 is the concentration that gives 50% inhibition.

Sequence of Adenylate cyclase type 2 (Homo sapiens) (Q08462 whole entry): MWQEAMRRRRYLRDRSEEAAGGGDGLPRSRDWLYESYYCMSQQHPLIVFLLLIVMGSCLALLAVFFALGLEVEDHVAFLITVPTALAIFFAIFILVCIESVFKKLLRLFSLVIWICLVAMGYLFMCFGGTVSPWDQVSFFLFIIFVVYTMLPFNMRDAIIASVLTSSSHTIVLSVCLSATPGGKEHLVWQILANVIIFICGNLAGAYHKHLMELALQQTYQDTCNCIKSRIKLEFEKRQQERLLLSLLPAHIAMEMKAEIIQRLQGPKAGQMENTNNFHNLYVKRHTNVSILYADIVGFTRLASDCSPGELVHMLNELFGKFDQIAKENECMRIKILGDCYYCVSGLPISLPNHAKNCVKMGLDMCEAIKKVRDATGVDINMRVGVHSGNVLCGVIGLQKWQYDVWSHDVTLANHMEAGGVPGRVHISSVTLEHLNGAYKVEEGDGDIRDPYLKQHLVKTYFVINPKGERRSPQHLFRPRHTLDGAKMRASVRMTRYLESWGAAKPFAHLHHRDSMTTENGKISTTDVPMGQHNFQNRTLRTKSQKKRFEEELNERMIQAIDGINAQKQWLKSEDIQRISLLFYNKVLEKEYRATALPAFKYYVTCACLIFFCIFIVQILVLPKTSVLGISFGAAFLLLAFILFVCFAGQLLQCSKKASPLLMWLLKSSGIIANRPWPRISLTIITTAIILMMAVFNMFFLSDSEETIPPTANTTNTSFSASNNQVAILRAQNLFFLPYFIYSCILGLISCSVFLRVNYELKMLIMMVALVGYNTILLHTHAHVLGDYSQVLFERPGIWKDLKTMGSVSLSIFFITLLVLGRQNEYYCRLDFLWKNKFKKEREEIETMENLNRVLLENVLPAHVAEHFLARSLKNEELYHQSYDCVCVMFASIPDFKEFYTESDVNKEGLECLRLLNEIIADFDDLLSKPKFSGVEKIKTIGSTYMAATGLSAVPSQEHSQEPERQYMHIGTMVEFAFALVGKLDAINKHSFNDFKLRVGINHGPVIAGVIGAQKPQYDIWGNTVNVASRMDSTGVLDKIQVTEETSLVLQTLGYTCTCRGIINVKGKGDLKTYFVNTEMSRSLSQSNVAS
Sequence of Adenylate cyclase type 10 (Q96PN6 whole entry): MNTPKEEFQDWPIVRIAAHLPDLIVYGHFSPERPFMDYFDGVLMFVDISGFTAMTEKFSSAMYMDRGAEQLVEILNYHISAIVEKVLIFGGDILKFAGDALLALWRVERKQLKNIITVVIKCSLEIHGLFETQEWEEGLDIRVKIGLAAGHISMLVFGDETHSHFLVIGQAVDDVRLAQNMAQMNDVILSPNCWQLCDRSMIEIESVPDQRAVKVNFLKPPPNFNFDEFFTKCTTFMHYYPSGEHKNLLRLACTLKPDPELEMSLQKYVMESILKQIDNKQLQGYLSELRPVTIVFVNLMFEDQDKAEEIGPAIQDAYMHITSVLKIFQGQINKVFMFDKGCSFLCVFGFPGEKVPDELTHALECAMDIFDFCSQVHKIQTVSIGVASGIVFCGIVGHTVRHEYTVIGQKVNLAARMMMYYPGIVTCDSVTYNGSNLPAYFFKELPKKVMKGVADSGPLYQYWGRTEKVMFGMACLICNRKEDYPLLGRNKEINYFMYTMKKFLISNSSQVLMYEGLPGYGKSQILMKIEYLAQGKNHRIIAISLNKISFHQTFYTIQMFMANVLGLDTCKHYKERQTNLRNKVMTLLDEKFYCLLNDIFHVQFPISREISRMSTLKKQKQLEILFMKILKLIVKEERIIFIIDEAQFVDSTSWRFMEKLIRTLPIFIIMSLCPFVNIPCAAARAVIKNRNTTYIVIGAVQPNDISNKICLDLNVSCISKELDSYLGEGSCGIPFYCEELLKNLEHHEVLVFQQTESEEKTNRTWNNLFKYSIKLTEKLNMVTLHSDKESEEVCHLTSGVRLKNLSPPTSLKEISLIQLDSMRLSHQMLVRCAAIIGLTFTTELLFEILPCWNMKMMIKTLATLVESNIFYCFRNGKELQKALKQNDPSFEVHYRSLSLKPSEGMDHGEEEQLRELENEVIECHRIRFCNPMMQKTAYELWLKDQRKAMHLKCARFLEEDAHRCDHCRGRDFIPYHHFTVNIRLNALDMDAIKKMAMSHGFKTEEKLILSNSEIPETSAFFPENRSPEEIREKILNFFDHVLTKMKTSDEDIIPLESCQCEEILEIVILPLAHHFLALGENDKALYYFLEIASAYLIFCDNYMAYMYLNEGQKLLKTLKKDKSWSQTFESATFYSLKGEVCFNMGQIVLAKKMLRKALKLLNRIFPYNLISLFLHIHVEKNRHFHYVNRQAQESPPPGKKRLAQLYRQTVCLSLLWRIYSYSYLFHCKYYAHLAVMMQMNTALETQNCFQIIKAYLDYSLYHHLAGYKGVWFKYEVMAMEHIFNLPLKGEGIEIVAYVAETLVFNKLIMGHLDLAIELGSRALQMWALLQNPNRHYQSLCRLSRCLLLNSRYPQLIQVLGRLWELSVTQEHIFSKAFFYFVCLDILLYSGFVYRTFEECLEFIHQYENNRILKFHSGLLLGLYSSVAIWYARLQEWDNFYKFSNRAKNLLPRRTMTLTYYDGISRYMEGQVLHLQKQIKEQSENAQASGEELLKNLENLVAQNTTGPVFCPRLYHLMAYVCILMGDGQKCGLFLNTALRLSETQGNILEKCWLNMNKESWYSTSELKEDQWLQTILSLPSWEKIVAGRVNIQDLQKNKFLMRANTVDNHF
Sequence of Adenylate cyclase type 5 (Homo sapiens) (O95622 whole entry, looked up): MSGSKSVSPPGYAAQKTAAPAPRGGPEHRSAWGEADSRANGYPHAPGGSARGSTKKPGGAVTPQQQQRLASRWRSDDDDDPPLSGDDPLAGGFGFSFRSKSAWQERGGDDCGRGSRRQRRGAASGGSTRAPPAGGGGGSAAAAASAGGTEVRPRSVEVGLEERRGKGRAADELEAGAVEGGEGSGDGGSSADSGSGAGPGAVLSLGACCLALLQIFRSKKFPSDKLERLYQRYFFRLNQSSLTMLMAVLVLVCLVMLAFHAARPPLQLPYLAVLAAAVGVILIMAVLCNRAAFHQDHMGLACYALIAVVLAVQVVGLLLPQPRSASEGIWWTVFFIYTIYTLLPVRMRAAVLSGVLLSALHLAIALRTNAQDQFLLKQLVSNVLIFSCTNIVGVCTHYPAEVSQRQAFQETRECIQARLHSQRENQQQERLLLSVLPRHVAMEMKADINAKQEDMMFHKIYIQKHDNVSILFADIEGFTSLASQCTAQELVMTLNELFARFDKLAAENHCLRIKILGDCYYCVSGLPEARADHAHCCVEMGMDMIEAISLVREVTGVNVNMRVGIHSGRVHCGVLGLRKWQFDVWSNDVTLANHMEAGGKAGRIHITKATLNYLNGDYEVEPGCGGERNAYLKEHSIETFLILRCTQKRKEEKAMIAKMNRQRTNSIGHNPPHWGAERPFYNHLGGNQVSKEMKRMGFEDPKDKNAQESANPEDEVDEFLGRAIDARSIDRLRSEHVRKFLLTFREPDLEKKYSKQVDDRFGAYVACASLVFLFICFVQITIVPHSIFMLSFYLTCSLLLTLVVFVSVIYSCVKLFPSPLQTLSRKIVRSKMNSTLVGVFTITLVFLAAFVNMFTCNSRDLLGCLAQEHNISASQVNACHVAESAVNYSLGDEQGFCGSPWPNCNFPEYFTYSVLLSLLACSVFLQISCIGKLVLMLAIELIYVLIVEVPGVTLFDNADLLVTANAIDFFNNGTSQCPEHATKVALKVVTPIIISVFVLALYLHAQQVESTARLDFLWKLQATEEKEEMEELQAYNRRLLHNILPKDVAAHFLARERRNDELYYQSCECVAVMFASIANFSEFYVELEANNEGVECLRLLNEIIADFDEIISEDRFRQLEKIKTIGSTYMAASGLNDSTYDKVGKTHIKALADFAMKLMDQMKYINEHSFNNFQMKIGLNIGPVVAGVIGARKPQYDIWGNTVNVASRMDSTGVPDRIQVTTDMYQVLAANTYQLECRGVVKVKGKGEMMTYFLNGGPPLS
Sequence of Adenylate cyclase type 1 (Homo sapiens) (Q08828 whole entry, looked up): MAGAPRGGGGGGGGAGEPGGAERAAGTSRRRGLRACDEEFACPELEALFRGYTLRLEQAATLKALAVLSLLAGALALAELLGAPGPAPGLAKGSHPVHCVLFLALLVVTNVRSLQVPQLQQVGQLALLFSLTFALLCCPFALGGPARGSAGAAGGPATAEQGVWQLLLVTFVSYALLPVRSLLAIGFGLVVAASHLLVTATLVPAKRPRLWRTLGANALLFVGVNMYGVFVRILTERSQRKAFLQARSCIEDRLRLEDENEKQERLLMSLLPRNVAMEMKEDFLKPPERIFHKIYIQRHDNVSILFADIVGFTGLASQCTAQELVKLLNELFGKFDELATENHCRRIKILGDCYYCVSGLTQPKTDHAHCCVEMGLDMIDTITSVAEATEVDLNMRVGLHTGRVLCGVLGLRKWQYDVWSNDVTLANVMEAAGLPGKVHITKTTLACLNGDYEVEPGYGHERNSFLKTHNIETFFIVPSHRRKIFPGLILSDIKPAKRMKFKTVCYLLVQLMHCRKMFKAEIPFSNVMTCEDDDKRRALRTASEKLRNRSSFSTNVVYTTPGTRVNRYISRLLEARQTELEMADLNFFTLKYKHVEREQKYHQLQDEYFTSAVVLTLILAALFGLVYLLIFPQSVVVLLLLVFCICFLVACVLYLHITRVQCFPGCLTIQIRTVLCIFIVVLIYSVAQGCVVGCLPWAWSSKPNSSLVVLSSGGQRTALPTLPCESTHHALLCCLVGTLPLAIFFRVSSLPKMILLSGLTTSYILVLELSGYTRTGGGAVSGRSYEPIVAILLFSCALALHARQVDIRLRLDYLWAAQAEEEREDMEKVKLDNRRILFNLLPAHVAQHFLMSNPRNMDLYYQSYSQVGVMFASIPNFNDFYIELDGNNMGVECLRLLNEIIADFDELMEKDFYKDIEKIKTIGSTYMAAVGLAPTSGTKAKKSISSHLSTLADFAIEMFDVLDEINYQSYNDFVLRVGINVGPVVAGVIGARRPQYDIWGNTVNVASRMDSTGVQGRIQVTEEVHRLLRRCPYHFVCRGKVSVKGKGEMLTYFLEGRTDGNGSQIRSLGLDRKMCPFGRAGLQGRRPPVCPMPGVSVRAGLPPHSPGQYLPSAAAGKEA

Turning to `C[C@]12CC[C@@H]3c4cc(O)c(O)cc4CC[C@H]3[C@@H]1CC[C@@H]2O`, the IC50 in assay [1] was 3 µM.

As to `C[C@]12CC[C@H]3[C@@H](CCC4=CC(=O)CC[C@@]43C)[C@@H]1CC[C@@H]2C(=O)COS(=O)(=O)c1ccc(Br)cc1`, the result in assay [2], in assay [3], in assay [4], in assay [5] and in assay [6] was inactive. For the same compound, in assay [1], the concentration for half-maximal inhibition (IC50) came to 1.1 µM.

As for `C[C@H]1[C@H](C)CC[C@]2(C(=O)O)CC[C@]3(C)C(=CC[C@@H]4[C@@]5(C)C[C@@H](O)[C@H](O)[C@@](C)(CO)[C@@H]5[C@H](O)C[C@]43C)[C@H]12` [MADECASSIC ACID], the IC50 in assay [7] was found to be 100 µM.

Take `BrC(c1cccc2ccccc12)c1cccc2ccccc12`: the IC50 in assay [7] was found to be 200 µM.

As to `O=C(O)c1cc2c(cc1S(=O)(=O)O)C1C(C3C2C2(Cl)C(Cl)=C(Cl)C3(Cl)C2(Cl)Cl)C2(Cl)C(Cl)=C(Cl)C1(Cl)C2(Cl)Cl` (stereo unspecified), the result in assay [2], in assay [8], in assay [3], in assay [4], in assay [5] and in assay [6] was Active. The IC50 in assay [1] was determined as 11 µM.
